{"source": "paper PMC11489133", "about": "“Obicetrapib exhibits favorable physiochemical and pharmacokinetic properties compared to previous cholesteryl ester transfer protein inhibitors: An integrated summary of results from non‐human primate studies and clinical trials” (Pharmacology Research & Perspectives, 2024)", "key": {"[1]": {"assay": "disposition of 14C-obicetrapib after a single oral dose of 20 mg/kg in the cynomolgus monkey", "format": "in vivo", "conditions": "urine and feces samples", "description": "Figure 1 illustrates the metabolism of obicetrapib (TA‐8995) in the cynomolgus monkey. A study was conducted to examine the disposition of ^14C‐obicetrapib following oral administration in the cynomolgus monkey (n = 3 males) at a dose level of 20 mg/kg. […] The monkeys each received a single oral dose of ^14C‐obicetrapib by gavage at a target dose level of 20 mg/kg and a nominal dose volume of 5 mL/kg. […] After the final blood collection, radioactivity was measured in the blood and plasma by liquid scintillation counting. The profile of M1 in selected samples of plasma was determined by high‐performance liquid chromatography (HPLC) (following extraction of the matrix, where relevant) and selected M1 were identified by liquid chromatography mass spectrometry. In plasma, unchanged obicetrapib and a M1 were the principal radioactive components and represented at least 66% of the chromatographic radioactivity in any single profile."}, "[2]": {"assay": "TULIP Phase II trial, plasma concentrations of obicetrapib", "format": "in vivo, humans", "conditions": "for % Change in Plasma Level: Week 20 vs EOT, mean (SD); for concentration at 12 weeks / concentration at 20 weeks: both sexes, human, plasma, oral, read-out: Mean (SD) Plasma Level; for concentration at 12 weeks: Week 12 (EOT)", "description": "(§1) The PK parameters and the effect of food on the bioavailability of obicetrapib in humans have been examined in both Phase I[9] (TA‐8995‐09 CSR, NewAmsterdam Pharma) and Phase II trials.[10], [11], [12], [13] The trials were performed in accordance with the Declaration of Helsinki, Good Clinical Practice Guidelines, and applicable regulatory requirements. Approval was obtained from the relevant ethical review boards for each site. All volunteers provided written informed consent prior to participation. PK parameters were determined using WinNonlin software, version 4.1 or higher (Pharsight/Certara Corporation, USA). Concentrations of obicetrapib were summarized for each treatment group using descriptive statistics.\nTULIP (NCT01970215) was a placebo‐controlled, double‐blind, randomized parallel‐group trial conducted to evaluate the effects of varying doses of obicetrapib as monotherapy and in combination with moderate‐intensity statin therapy on LDL‐C and HDL‐C levels.[10]\nAdditionally, the plasma concentrations of obicetrapib were evaluated during and after the treatment period. Eligible participants had mild dyslipidemia defined as LDL‐C levels between 96–174 mg/dL, HDL‐C levels between 31 and 70 mg/dL, and triglyceride levels <400 mg/dL after a washout for those on lipid‐modifying therapies. Three hundred and sixty‐four participants (mean age: 64.7 years; 81.6% male; 98.1% White; mean body mass index [BMI]: 26.0 kg/m^2) were enrolled at 17 clinical research sites in the Netherlands and Denmark and randomized in a […] ratio to one of nine treatment groups: (1) placebo; (2) 1 mg obicetrapib; (3) 2.5 mg obicetrapib; (4) 5 mg obicetrapib; (5) 10 mg obicetrapib; (6) 10 mg atorvastatin; (7) 10 mg obicetrapib plus 20 mg atorvastatin; (8) 10 mg rosuvastatin; or (9) 10 mg obicetrapib plus 10 mg rosuvastatin. The participants were instructed to take their assigned treatment orally with food once daily for the 12‐week treatment period. After randomization, participants returned to the clinical research site for PK assessments at Weeks 8 and 12 (end of treatment). Participants also completed follow‐up visits two and eight weeks after the end of treatment (Weeks 14 and 20) for final safety and PK assessments. Of the 364 participants randomized, 337 (92.6%) completed the trial and were included in the primary analysis. The PK population (n = 242) included all randomized participants who received at least one dose of obicetrapib and had at least one valid plasma drug concentration data assessment; 227 (93.8%) of the participants in the PK population were included in the 8‐week post‐end of treatment PK analysis (TA‐8995‐03 CSR, NewAmsterdam Pharma)."}, "[3]": {"assay": "ROSE Phase II trial, plasma concentrations of obicetrapib", "format": "in vivo, humans", "conditions": "for % Change in Plasma Level: Week 8 to Week 23, mean (SD); for concentration at 8 weeks / concentration at 23 weeks: both sexes, human, plasma, oral, read-out: Mean (SD) Plasma Level; for concentration at 8 weeks: Week 8 (EOT); for concentration at 23 weeks: Week 23, fifteen weeks after the end of treatment", "description": "as §1\nROSE (NCT04753606) was a placebo‐controlled, double‐blind, randomized trial conducted to evaluate the efficacy of obicetrapib as an adjunct to high‐intensity statin therapy for reducing LDL‐C and ApoB levels.[11] A secondary endpoint of the trial included assessing plasma concentrations of obicetrapib during and after the end of treatment. […] One hundred twenty participants (mean age: 61.8 years; 55.8% male; 76.7% White; mean BMI: 31.1 kg/m^2) were enrolled at 17 clinical research sites in the United States and randomized in a 1:1:1 ratio to one of three treatment groups: (1) placebo; (2) 5 mg obicetrapib; or (3) 10 mg obicetrapib. The participants were instructed to take their assigned treatment orally with food once daily at approximately the same time each morning for the 8‐week treatment period. After randomization, participants returned to the clinical research site during Weeks 4 and 8 (end of treatment) for PK assessments. Additionally, participants completed follow‐up visits at four, eight, and 15 weeks after the end of treatment (Weeks 12, 16, and 23) for PK assessments. Of the 120 participants randomized in ROSE, 119 (99.2%) completed treatment; all 120 participants randomized were included in the modified Intent‐to‐Treat (mITT) analysis. The PK population (n = 80) included all randomized participants in the mITT population assigned to the two obicetrapib dose groups who had sufficient blood samples collected for valid estimation of PK parameters. Seventy‐seven (96.3%), 79 (98.8%), and 79 (98.8%) participants in the PK population for ROSE were included in the 4‐, 8‐, and 15‐week post‐end of treatment PK analyses, respectively (TA‐8995‐201 CSR, NewAmsterdam Pharma)."}, "[4]": {"parameters": "method as in PMID 24628035", "conditions": "cited from earlier work; for t ½ (terminal half‐life): arithmetic mean (CV%)"}, "[5]": {"conditions": "Obicetrapib 10 mg + atorvastatin 20 mg"}, "[6]": {"conditions": "Obicetrapib 10 mg + rosuvastatin 10 mg"}, "[7]": {"conditions": "Obicetrapib 5 mg + high‐intensity statin"}, "[8]": {"conditions": "Obicetrapib 10 mg + high‐intensity statin"}, "[9]": {"conditions": "single dose 5 mg, after a standard breakfast, geometric mean (CV%)"}, "[10]": {"conditions": "single dose 10 mg, after a standard breakfast, geometric mean (CV%)"}}, "note": "Where two headings read alike, the source gives them in different places. Marks after values point to notes of the source that are not given here.", "data": [{"smiles": "CCOC(=O)N1c2ccc(C(F)(F)F)cc2C(N(Cc2cc(C(F)(F)F)cc(C(F)(F)F)c2)c2ncc(OCCCC(=O)O)cn2)CC1CC", "note": "(stereo not shown) [Obicetrapib]", "values": [{"measurement": "metabolism of obicetrapib", "setting": "[1]", "result": "extensive"}, {"measurement": "% Change in Plasma Level", "setting": "[2]; Obicetrapib 5 mg", "result": "−97.8 (0.8) %"}, {"measurement": "Mean (SD) Plasma Level", "setting": "[2]; Obicetrapib 10 mg + atorvastatin 20 mg, Week 20, eight weeks after the end of treatment", "result": "10.8 (5.9) ng/mL"}, {"measurement": "% Change in Plasma Level", "setting": "[2]; [5]", "result": "−97.4 (1.0) %"}, {"measurement": "% Change in Plasma Level", "setting": "[2]; [6]", "result": "−97.3 (1.3) %"}, {"measurement": "% Change in Plasma Level", "setting": "[2]; Obicetrapib 10 mg", "result": "−97.7 (0.7) %"}, {"measurement": "concentration at 12 weeks", "setting": "[2]; 5 mg, Obicetrapib 5 mg once daily", "result": 258, "unit": "ng/mL"}, {"measurement": "concentration at 20 weeks", "setting": "[2]; 5 mg, Obicetrapib 5 mg, Week 20, eight weeks after the end of treatment", "result": 5.9, "unit": "ng/mL"}, {"measurement": "concentration at 12 weeks", "setting": "[2]; 10 mg, Obicetrapib 10 mg once daily", "result": 408, "unit": "ng/mL"}, {"measurement": "concentration at 20 weeks", "setting": "[2]; 10 mg, Obicetrapib 10 mg, Week 20, eight weeks after the end of treatment", "result": 9.8, "unit": "ng/mL"}, {"measurement": "concentration at 12 weeks", "setting": "[2]; [5]", "result": 404, "unit": "ng/mL"}, {"measurement": "concentration at 12 weeks", "setting": "[2]; [6]", "result": 402, "unit": "ng/mL"}, {"measurement": "concentration at 20 weeks", "setting": "[2]; Obicetrapib 10 mg + rosuvastatin 10 mg, Week 20, eight weeks after the end of treatment", "result": 11.3, "unit": "ng/mL"}, {"measurement": "decrease of plasma levels", "setting": "[2]; eight weeks after the last dose (Week 20), all treatment groups", "result": "approximately 97%"}, {"measurement": "% Change in Plasma Level", "setting": "[3]; [7]", "result": "−98.5 (1.7) %"}, {"measurement": "% Change in Plasma Level", "setting": "[3]; Obicetrapib 5 mg + high‐intensity statin, listed as obicetrapib", "result": "−98.5", "unit": "%"}, {"measurement": "% Change in Plasma Level", "setting": "[3]; [8]", "result": "−98.4 (1.9) %"}, {"measurement": "concentration at 8 weeks", "setting": "[3]; [7]", "result": 254, "unit": "ng/mL"}, {"measurement": "concentration at 23 weeks", "setting": "[3]; [7]", "result": 2.9, "unit": "ng/mL"}, {"measurement": "concentration at 8 weeks", "setting": "[3]; [8]", "result": 395, "unit": "ng/mL"}, {"measurement": "concentration at 23 weeks", "setting": "[3]; [8]", "result": 5.6, "unit": "ng/mL"}, {"measurement": "t ½ (terminal half‐life)", "setting": "[4]; multiple daily doses 5 mg, after the last dose", "result": "148 (30%) h"}, {"measurement": "t max", "setting": "[4]; multiple daily doses 5 mg, after the last dose, median (minimum, maximum)", "result": "4 (3, 8) h"}, {"measurement": "C max", "setting": "[4]; multiple daily doses 5 mg, steady state, after the last dose, geometric mean (CV%)", "result": "436 (18%) ng/mL"}, {"measurement": "AUC (0, τ, ss)", "setting": "[4]; multiple daily doses 5 mg, steady state, τ 24 h, geometric mean (CV%)", "result": "7606 (20%) ^f ng·h/mL"}, {"measurement": "Rac (accumulation ratio, AUC(0,τ,ss)/AUC(0–24 h))", "setting": "[4]; multiple daily doses 5 mg", "result": "4.3 (1.1)"}, {"measurement": "Rac (accumulation ratio, AUC(0,τ,ss)/AUC(0–24 h))", "setting": "[4]; multiple daily doses 5 mg, listed as obicetrapib", "result": 4.3}, {"measurement": "t ½ (terminal half‐life)", "setting": "[4]; multiple daily doses 10 mg, after the last dose", "result": "131 (19%) h"}, {"measurement": "t max", "setting": "[4]; multiple daily doses 10 mg, after the last dose, median (minimum, maximum)", "result": "6 (4, 8) h"}, {"measurement": "C max", "setting": "[4]; multiple daily doses 10 mg, steady state, after the last dose, geometric mean (CV%)", "result": "692 (23%) ng/mL"}, {"measurement": "Rac (accumulation ratio, AUC(0,τ,ss)/AUC(0–24 h))", "setting": "[4]; multiple daily doses 10 mg", "result": "3.7 (0.8)"}, {"measurement": "Rac (accumulation ratio, AUC(0,τ,ss)/AUC(0–24 h))", "setting": "[4]; multiple daily doses 10 mg, listed as obicetrapib", "result": 3.7}, {"measurement": "t ½ (terminal half‐life)", "setting": "[4]; multiple daily doses 25 mg, after the last dose", "result": "121 (23%) h"}, {"measurement": "t max", "setting": "[4]; multiple daily doses 25 mg, after the last dose, median (minimum, maximum)", "result": "4 (2, 6) h"}, {"measurement": "C max", "setting": "[4]; multiple daily doses 25 mg, steady state, after the last dose, geometric mean (CV%)", "result": "1398 (18%) ng/mL"}, {"measurement": "Rac (accumulation ratio, AUC(0,τ,ss)/AUC(0–24 h))", "setting": "[4]; multiple daily doses 25 mg", "result": "2.1 (0.3)"}, {"measurement": "Rac (accumulation ratio, AUC(0,τ,ss)/AUC(0–24 h))", "setting": "[4]; multiple daily doses 25 mg, listed as obicetrapib", "result": 2.1}, {"measurement": "t max", "setting": "[4]; multiple daily doses, all doses except 10 mg", "result": 4, "unit": "h"}, {"measurement": "obicetrapib in urine", "setting": "[4]; multiple doses, any participant", "result": "not detected"}, {"measurement": "AUC (0–24 h)", "setting": "[4]; [9]", "result": "1796 (14%) ng·h/mL"}, {"measurement": "C max", "setting": "[4]; [9]", "result": "116 (13%) ng/mL"}, {"measurement": "t max", "setting": "[4]; single dose 5 mg, after a standard breakfast, median (minimum, maximum)", "result": "6 (4, 8) h"}, {"measurement": "AUC (0–24 h)", "setting": "[4]; [10]", "result": "3471 (18%) ng·h/mL"}, {"measurement": "C max", "setting": "[4]; [10]", "result": "245 (14%) ng/mL"}, {"measurement": "t max", "setting": "[4]; single dose 10 mg, after a standard breakfast, median (minimum, maximum)", "result": "6 (4, 8) h"}, {"measurement": "C max", "setting": "[4]; single dose 25 mg, after a standard breakfast, geometric mean (CV%)", "result": "750 (19%) ng/mL"}, {"measurement": "t max", "setting": "[4]; single dose 25 mg, after a standard breakfast, median (minimum, maximum)", "result": "6 (3, 8) h"}, {"measurement": "t max", "setting": "[4]; single dose regardless of the strength of the dose (1–25 mg)", "result": 6, "unit": "h"}, {"measurement": "time in which plasma levels were approaching steady state", "setting": "[4]; visual inspection of trough concentrations, multiple once daily doses", "result": "within one to two weeks"}]}]}
